Paper PMC3977574, “Structural Basis of Mos1 Transposase Inhibition by the Anti-retroviral Drug Raltegravir” (ACS Chemical Biology, 2014)

Molecular target: T1, Mos1 transposase (Drosophila mauritiana, UniProt Q7JQ07, T216A)
T1 construct: gene mariner\T; Mos1 transposase catalytic domain (crystal); Mos1 transposase and paired-end complex (thermal denaturation and activity assays)
Experiment: X-ray co-crystal structures at […] Å (soak); thermal denaturation shift; strand transfer assay IC50 […]; plasmid cleavage assay IC50 […]
Assay type: biochemical

T1 sequence (Q7JQ07 whole entry T216A, the tested form may be a part): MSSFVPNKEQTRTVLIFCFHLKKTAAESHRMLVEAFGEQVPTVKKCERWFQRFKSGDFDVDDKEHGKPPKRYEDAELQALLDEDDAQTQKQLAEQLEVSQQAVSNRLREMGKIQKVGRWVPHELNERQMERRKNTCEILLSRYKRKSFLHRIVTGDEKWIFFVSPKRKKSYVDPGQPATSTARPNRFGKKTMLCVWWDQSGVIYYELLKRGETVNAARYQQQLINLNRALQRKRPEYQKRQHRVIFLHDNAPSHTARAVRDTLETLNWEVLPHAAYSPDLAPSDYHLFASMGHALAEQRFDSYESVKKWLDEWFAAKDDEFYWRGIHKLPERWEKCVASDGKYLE

Compound: Cc1nnc(C(=O)NC(C)(C)c2nc(C(=O)NCc3ccc(F)cc3)c(O)c(=O)n2C)o1 [Raltegravir]
- IC50: ~2000 nM
